Results from PMC13288645, “A cryopreserved and in vivo-in vitro validated human induced pluripotent stem cell blood-brain barrier model for reliable neurotoxicity assessment” (NAM journal, 2025).
Values joined by “and” are separate entries in the source; they are usually repeats but may differ in a detail not shown here. Equal entries are not always repeated.

What was measured:
in vitro = settings: human
Excerpt: All human iPSC-derived blood-brain barrier cells (Brain Microvascular Endothelial Cells (BMECs), Astrocytes and Pericytes (AP)), media (BMEC maintenance medium and AP medium), and media supplements (plating supplement 500X) have been purchased from Fujifilm Cellular Dynamics Inc. (FCDI, Madison, WI, US, catalogue: R1241). The respective certificates of analysis, including cell characterization data, can be accessed in Supplementary Data File 1. All cells were derived from the same proprietary donor. […] All additional experiments included 96-transwell® membranes only. […] BMEC maintenance medium contained only 1 % P/S without supplements. Unless stated differently, transwell® compartment volumes were used as recommended by Corning including 75 µL apically and 235 µL basolaterally for 96-transwells® as well as 300 µL apically and 1000 µL basolaterally for 24-transwells®.
On day −2, 24-transwells® were coated apically with Collagen IV-Fibronectin coating solution and stored overnight at 4 °C (Fig. 1A). In contrast, 96-transwells® were first flipped upside down, and coated with 50 µL Fibronectin-Collagen IV solution on the basolateral side for 4 h at 37 °C and 5 % CO2 and stored overnight at 4 °C (Fig. 1B). On day −1, 24-transwells® were flipped upside down and coated with 100 µL of a 0.1 % Gelatin solution for 0.5 h at room temperature (RT) before replacement with 100 µL of the AP seeding solution containing 1.1 × 10^6 astrocytes/mL and 2.2 × 10^6 pericytes/mL in AP plating medium. After seeding, cells were incubated to attach for 4 h at 37 °C and 5 % CO2 and then flipped back to normal orientation. […] In both cases, Collagen IV-Fibronectin coating solution was replaced with AP plating medium. […] Here, cells were incubated to attach for 4 h at 37 °C and 5 % CO2 before flipping the transwells® slowly back to normal orientation. To inspect the cell layers for obvious leakages or cell detachment, blank transwell® filters and fully assembled models were observed under a Zeiss Primovert microscope (Carl Zeiss Microscopy GmbH, Jena, Germany) (Supplementary Figure 1). On day 1, BMEC plating medium was replaced by BMEC maintenance medium. After 24 h at 37 °C and 5 % CO2 barrier integrity was evaluated to consider only highly restrictive BBB models for pharmaceutical permeability testing.
After 60 min at 37 °C, 5 % CO2 and 100 rpm shaking on an orbital shaker, 50 µL were sampled from the donor and acceptor (containing APs) compartment. Following a transfer to 96-well plates, samples were diluted 1:1 with 50 µL of DPBS.
With cac being the analyte concentration in the acceptor compartment (µM), t the duration of the incubation (s, here 3 600 s), A the surface area of the respective transwell® membrane (cm^2), Vac the volume of the acceptor compartment (mL) and cdc the applied concentration in the donor compartment (µM). Papp was reported as the average of triplicate 24-transwell® models and six 96-transwell® model replicates.
Additional compound data, including final solvent concentrations and physicochemical properties, were summarized in Supplementary Table 1. After 60 min at 37 °C, 5 % CO2 and 100 rpm shaking on an orbital shaker, 50 µL were sampled from the acceptor and donor compartments of quadruplicate BBB models as well as cell-free controls.
Then, all samples were subject to protein precipitation with acetonitrile:methanol 50:50 (v/v). After centrifugation for 10 min at 10 000 × g, supernatants were transferred to new vials and subsequently evaporated to dryness. […] Derivatization was executed in a ThermoMixer C (Eppendorf, Hamburg, Germany) at 65 °C and 600 rpm for 15 min. After evaporating samples to dryness again, final reconstitution was performed as described above.

BBB [1] = settings: cited from earlier work; for In vivo human rate constant for compound transfer from blood across the BBB into brain (K1): human clinical PET, ref Ghazanfari et al. 2024, Le Roux et al. 2019
BBB [2] = experiment: Prediction of human in vivo K1 from in vitro Papp with the linear model
[3] = test system: hiPSC-derived blood-brain barrier model; settings: human
rats = settings: oral dosing, ref Amaraneni et al., 2016, Kim et al., 2008, 2007; cited from earlier work
[4] = test system: hiPSC-derived blood-brain barrier model; experiment: Bioavailable radioactivity of [benzyl-14C]-Deltamethrin in the transwell media by liquid scintillation counting; settings: 1h, per replicate, listed as [benzyl-14C]-Deltamethrin
hiPSC-derived BBB = test system: hiPSC-derived BBB; parameters: method as in Le Roux et al., 2019; settings: high in vitro permeability not confirmed by this study; ref Le Roux et al., 2019; cited from earlier work
[5] = source not stated; cited from earlier work
[6] = In vitro hiPSC-derived blood-brain barrier model apparent permeability (Papp)
[7] = male, in vitro apparent permeability Papp
[8] = male, in vitro apparent permeability Papp, 96-transwell hiPSC-derived BBB, 60 min, 5 µM (17β-Estradiol 10 µM, Deltamethrin 3 µM)

| Compound | Papp at 60 min (in vitro; [6]) | Papp at 60 min (in vitro; [7]) | In vivo human rate constant for compound transfer from blood across the BBB into brain (K1) (BBB [1]) | Papp at 60 min (in vitro; male) | Papp at 60 min (in vitro; [8]) | LogP [5] | other results |
| --- | --- | --- | --- | --- | --- | --- | --- |
| C[C@]12CC[C@@H]3c4ccc(O)cc4CC[C@H]3[C@@H]1CC[C@@H]2O [17β-Estradiol] | 16.9 ×10⁻⁶ cm/s | > 15 ×10⁻⁶ cm/s | 0.24 mL min^-1 cm^-3 |  |  |  | human in vivo permeability K1 (elevated) (BBB [1]; human, ref Delforge et al., 1995, Le Roux et al., 2019, Zubieta et al., 2000): > 0.1 mL cm^-3 min^-1 |
| CC1(C)[C@H](C(=O)O[C@H](C#N)c2cccc(Oc3ccccc3)c2)[C@@H]1C=C(Br)Br [Deltamethrin] |  | 0.979 ×10⁻⁶ cm/s |  |  |  |  | predicted in vivo K1 (BBB [2]; after insertion of Papp into the linear model): −0.099 mL cm^-3 min^-1; Prediction of K1 (BBB [2]; human in vivo K1 predicted from in vitro Papp with the linear model): -0.099 mL min^-1 cm^-3; Bioavailable [benzyl-14C]-Deltamethrin [3]: 786.44 Bq; brain entry and neurotoxic effects in rats (rats): entered the brain and exhibited neurotoxic effects only after 10 mg/kg oral dosing; Radioactivity Sample apical ([4]; BBB model, acceptor compartment): 1.40 Bq and 1.53 Bq and 1.70 Bq and 2.08 Bq; Radioactivity Sample basolateral ([4]; BBB model, donor compartment): 737.12 Bq and 789.28 Bq and 793.66 Bq and 818.98 Bq; Radioactivity Blank apical ([4]; cell-free control transwell with compound, acceptor compartment): 3.00 Bq and 3.65 Bq and 3.95 Bq and 2.93 Bq; Radioactivity Blank basolateral ([4]; cell-free control transwell with compound, donor compartment): 762.65 Bq and 864.27 Bq and 830.94 Bq and 846.43 Bq |
| C#Cc1cccc(Nc2ncnc3cc(OCCOC)c(OCCOC)cc23)c1 [Erlotinib] |  |  | 0.02 mL min^-1 cm^-3 | 12.1 ×10⁻⁶ cm/s | < 15 ×10⁻⁶ cm/s |  | in vitro permeability Papp in previous hiPSC-derived BBB results (hiPSC-derived BBB): > 15 × 10^–6 cm/s |
| CCOC(=O)c1ncn2c1CN(C)C(=O)c1cc(F)ccc1-2 [Flumazenil] |  |  |  |  |  | 1.9 |  |
| CN(C)C(=O)C(CCN1CCC(O)(c2ccc(Cl)cc2)CC1)(c1ccccc1)c1ccccc1 [Loperamide] |  |  | 0.002 mL min^-1 cm^-3 | 6.75 ×10⁻⁶ cm/s | < 15 ×10⁻⁶ cm/s | 5.13 | human in vivo K1 (clinically shown to enter the human brain relatively poorly) (BBB [1]; human, ref Bauer et al., 2015, Traxl et al.): < 0.05 mL cm^-3 min^-1 |
| CCN1CCC[C@H]1CNC(=O)c1c(O)c(Cl)cc(Cl)c1OC [Raclopride] | 16.8 ×10⁻⁶ cm/s | > 15 ×10⁻⁶ cm/s | 0.09 mL min^-1 cm^-3 |  |  |  |  |
